Measured values taken from patent US6458767B1, “Use of peptides inhibitory for thrombospondin dependent TGF-β activation in the treatment of kidney disease” (The UAB Research Foundation, priority 1994, dated 2002).
Ends that are not written are not given here.

Assays:
[1] = system: rats with anti-Thy1 disease; experiment: Glomerular extracellular matrix formation (Masson's Trichrome, collagen I, collagen IV, fibronectin stains) in the anti-Thy1 model; format: in vivo, rat
From the text: (§1) Experimental design. Experimental mesangial proliferative glomerulonephritis was induced using the monoclonal mouse anti-Thy1 antibody OX-7. Peptides were continuously infused intravenously (i.v.) via jugular vein using osmotic minipumps starting sixteen hours after disease induction. The effects of the hexapeptide AAWSHW (SEQ ID NO:22) (that interferes with the TSP1-mature TGF-β interaction) or the LSKL-peptide (SEQ ID NO:21) (that blocks the TSP1-LAP interaction) were compared to a control peptide (SLLK) in the anti-Thy1 model. Tissues from different time points (days three, five, eight) of this experiment were analyzed in regard to mesangiolysis, macrophage-influx, MC-proliferation, MC-activation, microaneurysm and matrix formation, GEN proliferation, TSP1, TGF-β1 and 2, as well as TGF-βRI and RII. Functional parameters such as blood pressure, proteinuria, and creatinine clearance were also determined. On day eight, glomerular secretion of active TGF-β was determined in individual animals by incubating isolated glomeruli for twenty-four hours in DMEM and measuring TGF-β activity in glomerular supernatants using the NRK-bioassay.
(§2) Animal model Experimental mesangial proliferative glomerulonephritis (anti-Thy1 model) was induced in Sprague Dawley rats (180-200 g; Charles River, Sulzfeld, Germany) by a single injection of 1 mg/kg of the mouse monoclonal anti-Thy1 antibody OX-7 (European Collection of Animal Cell Culture, Salisbury, England). In this animal model, complete anti-Thy1 antibody binding occurs within an hour (Johnson et al. (1991) Am. J. Pathol. 138 (2), 313-21). To avoid potential interference of the LAP-peptides with anti-Thy1 antibody binding and subsequent mesangiolysis, the peptide treatment was started sixteen hours after disease induction, when binding of the anti-Thy1 antibody to the mesangium and subsequent mesangiolysis had already occurred. The peptides used in this study were synthesized, purified, and analyzed as described elsewhere (Crawford et al. (1998) Cell 93, 1159-1170).
(§3) Renal biopsies as described previously (Hugo et al. (1997) J. Clin. Invest. 100, 786-794) were performed on days three and five, and the experiment was finished on day eight. To determine DNA incorporation into proliferating cells, each animal was injected intravenously with BrdU (50 mg/kg bw) ninety minutes before the second survival biopsy was taken on day five (peak of MC proliferation). Renal biopsies were fixed in methyl Carnoy's, 10% formalin and/or OCT and snap frozen. A twenty-four hour urine collection for measurement of protein and creatinine was done from day seven to eight, when maximal proteinuria occurs in this model (unpublished observation). Blood pressure measurements were done twice before and twice after disease induction. In renal biopsies, the frequency of glomerular microaneurysms, the number of infiltrating macrophages, the number of proliferating MC, the expression of the contractile protein α-sm actin as a marker of MC-activation, and the expression of TGF-β1, TGF-β2, TGF-βRI, TGF-βRII, TSP1, as well as of extracellular matrix proteins such as collagen I, collagen IV and fibronectin were determined. For TGF-β activity measurements in individual animals on day eight, glomeruli were isolated by differential sieving (Johnson et al. (1991) Am. J. Pathol. 138 (2), 313-21) and counted using five aliquots. Glomerular isolates were discarded if purity was less than 95%. 8000 glomeruli/ml were incubated in DMEM at 37° C. After a twenty-four hour incubation period, glomerular supernatants were stored by −70° C. until TGF-β activity measurements were done.
(§4) Peptide infusion. All peptides (at a concentration of 3.5 mg/ml) were continuously infused for seven days via a catheter in the right jugular vein using osmotic minipumps (Alzet Corp./Charles River, Sulzfeld, Germany). […]

[2] = system: rats with anti-Thy1 disease; experiment: Glomerular MC-proliferation, MC-activation and macrophage influx in the anti-Thy1 model; format: in vivo, rat
From the text: as §1, §2, §3, §4

TGF-β = experiment: Glomerular secretion of active TGF-β (NRK-bioassay of supernatants of isolated glomeruli) in anti-Thy1 rats; format: in vivo, rat; conditions: for Active TGF-β (colonies > 62 um): day 8 glomeruli, 24 h supernatant, NRK-bioassay, continuous i.v. peptide infusion
From the text: as §1, §2
as §3, with “After a twenty-four hour incubation period, glomerular supernatants were stored by −70° C. until TGF-β activity measurements were done.” left out

[3] = system: rats with anti-Thy1 disease; experiment: Glomerular immunostaining score for TGF-β1, TGF-β2, TGF-βRI, TGF-βRII and TSP1 in the anti-Thy1 model; format: in vivo, rat
From the text: as §1, §2, §3, §4

[4] = system: rats with anti-Thy1 disease; experiment: Mesangiolysis, microaneurysm formation and GEN-proliferation in the anti-Thy1 model; format: in vivo, rat; conditions: for Glomerular GEN-proliferation (double staining for RECA-1 and PCNA) / mesangiolysis scores: day three; for mesangiolysis scores: scale 0-IV
From the text: as §1, §2, §3, §4

[5] = system: rats with anti-Thy1 disease; experiment: Functional parameters (proteinuria, creatinine clearance, blood urea nitrogen, systolic blood pressure) in the anti-Thy1 model; format: in vivo, rat; conditions: for Proteinuria (mg/24 hours): day 8 (urine collection day seven to eight); for twenty-four hour proteinuria: days seven to eight; for Blood urea nitrogen: rat, in vivo
From the text: as §1, §2, §3, §4

[6] = system: activation of TGF-β by TSP1; conditions: background, literature; cited from earlier work

**Q.** What does the source list for AAWSHW?
**A.** Matrix Collagen 1 (score 0-4) ([1]; day 3): 0.1 ± 0.1 score 0-4; Matrix Collagen IV (score 0-4) ([1]; day 3): 1.0 ± 0.5 score 0-4; Matrix Fibronectin (score 0-4) ([1]; day 3): 1.3 ± 0.3 score 0-4; Matrix Trichrome (score 0-3) ([1]; day 3): 0.5 ± 0.3 score 0-3; Matrix Collagen 1 (score 0-4) ([1]; day 5): 0.8 ± 0.6 score 0-4; Matrix Collagen IV (score 0-4) ([1]; day 5): 2.1 ± 0.6 score 0-4; Matrix Fibronectin (score 0-4) ([1]; day 5): 1.9 ± 1.2 score 0-4; Matrix Trichrome (score 0-3) ([1]; day 5): 0.9 ± 0.3 score 0-3; Matrix Collagen 1 (score 0-4) ([1]; day 8): 1.0 ± 0.6 score 0-4; Matrix Collagen IV (score 0-4) ([1]; day 8): 1.3 ± 0.5 score 0-4; Matrix Fibronectin (score 0-4) ([1]; day 8): 1.2 ± 0.8 score 0-4; Matrix Trichrome (score 0-3) ([1]; day 8): 1.4 ± 0.4 score 0-3; extracellular matrix formation as determined by Trichrome staining ([1]; day eight, in words): markedly suppressed; glomerular accumulation of collagen I, collagen IV and fibronectin by immunohistochemistry ([1]; time course of anti-Thy1 disease, in words): reduced glomerular accumulation of all three extracellular matrix proteins; MC-activation α-sm actin (score 0-4) ([2]; day 3): 1.1 ± 0.5 score 0-4; MC-proliferation (OX-7 + /PCNA + cells/glomerulus) ([2]; day 3): 3.1 ± 0.8 cells/glomerulus; Macrophages (ED-1 + cells/glomerulus) ([2]; day 3): 3.0 ± 1.8 cells/glomerulus; MC-activation α-sm actin (score 0-4) ([2]; day 5): 2.8 ± 0.5 score 0-4; MC-proliferation (OX-7 + /BrdU + cells/glomerulus) ([2]; day 5): 4.6 ± 1.9 cells/glomerulus; MC-proliferation (OX-7 + /PCNA + cells/glomerulus) ([2]; day 5): 8.5 ± 1.6 cells/glomerulus; Macrophages (ED-1 + cells/glomerulus) ([2]; day 5): 0.9 ± 0.5 cells/glomerulus; MC-activation α-sm actin (score 0-4) ([2]; day 8): 2.5 ± 0.4 score 0-4; MC-proliferation (OX-7 + /PCNA + cells/glomerulus) ([2]; day 8): 3.9 ± 0.8 cells/glomerulus; Macrophages (ED-1 + cells/glomerulus) ([2]; day 8): 0.7 ± 0.3 cells/glomerulus; MC activation (de novo expression of α-sm-actin) ([2]; in words): did not significantly alter; Active TGF-β (colonies > 62 um) (TGF-β): 220 ± 70 colonies > 62 um; glomerular secretion of active TGF-β compared to control peptide (SLLK) treated rats (TGF-β; day eight glomeruli, p<0.01): markedly reduced; TGF-β1 (score 0-4) ([3]; day 3): 0.4 ± 0.2 score 0-4; TGF-β2 (score 0-4) ([3]; day 3): 0.4 ± 0.3 score 0-4; TGF-βRI (score 0-4) ([3]; day 3): 0.5 ± 0.3 score 0-4; TGF-βRII (score 0-4) ([3]; day 3): 0.5 ± 0.5 score 0-4; TSP I (score 0-4) ([3]; day 3): 0.6 ± 0.2 score 0-4; TGF-β1 (score 0-4) ([3]; day 5): 1.9 ± 0.9 score 0-4; TGF-β2 (score 0-4) ([3]; day 5): 1.1 ± 0.7 score 0-4; TGF-βRI (score 0-4) ([3]; day 5): 1.9 ± 0.4 score 0-4; TGF-βRII (score 0-4) ([3]; day 5): 1.4 ± 0.6 score 0-4; TSP I (score 0-4) ([3]; day 5): 1.5 ± 0.9 score 0-4; TGF-β1 (score 0-4) ([3]; day 8): 1.6 ± 1.1 score 0-4; TGF-β2 (score 0-4) ([3]; day 8): 0.5 ± 0.4 score 0-4; TGF-βRI (score 0-4) ([3]; day 8): 1.6 ± 0.6 score 0-4; TGF-βRII (score 0-4) ([3]; day 8): 1.2 ± 0.5 score 0-4; TSP I (score 0-4) ([3]; day 8): 0.8 ± 0.7 score 0-4; Glomerular Microaneurysm (in percent) ([4]; day 3): 12.2 ± 11.6%; Glomerular Microaneurysm (in percent) ([4]; day 5): 15.5 ± 11.8%; Glomerular Microaneurysm (in percent) ([4]; day 8): 1.6 ± 1.8%; Glomerular GEN-proliferation (double staining for RECA-1 and PCNA) [4]: 1.8±0.6; mesangiolysis scores [4]: 2.5±0.4; Proteinuria (mg/24 hours) [5]: 51 ± 50 mg/24 hours; twenty-four hour proteinuria [5]: 51±50 mg/twenty-four hours; Blood urea nitrogen [5]: 23.6 ± 7.1 mg/dL; block of activation of TGF-β by TSP1 [6]: able to block activation of TGF-β by TSP1

**Q.** What does the source list for “control/SLLK: control peptide SLLK (SEQ ID NO:47), group 1 [reference compound]”?
**A.** Matrix Collagen 1 (score 0-4) ([1]; day 3): 0.1 ± 0.1 score 0-4; Matrix Collagen IV (score 0-4) ([1]; day 3): 1.2 ± 0.4 score 0-4; Matrix Fibronectin (score 0-4) ([1]; day 3): 1.5 ± 0.8 score 0-4; Matrix Trichrome (score 0-3) ([1]; day 3): 0.7 ± 0.3 score 0-3; Matrix Collagen 1 (score 0-4) ([1]; day 5): 2.3 ± 0.5 score 0-4; Matrix Collagen IV (score 0-4) ([1]; day 5): 3.3 ± 0.4 score 0-4; Matrix Fibronectin (score 0-4) ([1]; day 5): 3.2 ± 0.4 score 0-4; Matrix Trichrome (score 0-3) ([1]; day 5): 1.5 ± 0.2 score 0-3; Matrix Collagen 1 (score 0-4) ([1]; day 8): 2.0 ± 0.5 score 0-4; Matrix Collagen IV (score 0-4) ([1]; day 8): 2.6 ± 0.6 score 0-4; Matrix Fibronectin (score 0-4) ([1]; day 8): 2.3 ± 0.9 score 0-4; Matrix Trichrome (score 0-3) ([1]; day 8): 2.3 ± 0.4 score 0-3; MC-activation α-sm actin (score 0-4) ([2]; day 3): 0.8 ± 0.4 score 0-4; MC-proliferation (OX-7 + /PCNA + cells/glomerulus) ([2]; day 3): 3.6 ± 0.7 cells/glomerulus; Macrophages (ED-1 + cells/glomerulus) ([2]; day 3): 4.5 ± 1.6 cells/glomerulus; MC-activation α-sm actin (score 0-4) ([2]; day 5): 2.9 ± 0.3 score 0-4; MC-proliferation (OX-7 + /BrdU + cells/glomerulus) ([2]; day 5): 4.7 ± 0.8 cells/glomerulus; MC-proliferation (OX-7 + /PCNA + cells/glomerulus) ([2]; day 5): 9.1 ± 1.5 cells/glomerulus; Macrophages (ED-1 + cells/glomerulus) ([2]; day 5): 1.9 ± 0.5 cells/glomerulus; MC-activation α-sm actin (score 0-4) ([2]; day 8): 2.9 ± 0.5 score 0-4; MC-proliferation (OX-7 + /PCNA + cells/glomerulus) ([2]; day 8): 4.2 ± 0.5 cells/glomerulus; Macrophages (ED-1 + cells/glomerulus) ([2]; day 8): 1.5 ± 0.5 cells/glomerulus; Active TGF-β (colonies > 62 um) (TGF-β): 380 ± 60 colonies > 62 um; TGF-β1 (score 0-4) ([3]; day 3): 0.2 ± 0.2 score 0-4; TGF-β2 (score 0-4) ([3]; day 3): 0.2 ± 0.1 score 0-4; TGF-βRI (score 0-4) ([3]; day 3): 0.4 ± 0.2 score 0-4; TGF-βRII (score 0-4) ([3]; day 3): 0.4 ± 0.3 score 0-4; TSP I (score 0-4) ([3]; day 3): 0.2 ± 0.2 score 0-4; TGF-β1 (score 0-4) ([3]; day 5): 2.6 ± 0.6 score 0-4; TGF-β2 (score 0-4) ([3]; day 5): 1.6 ± 0.4 score 0-4; TGF-βRI (score 0-4) ([3]; day 5): 1.9 ± 0.5 score 0-4; TGF-βRII (score 0-4) ([3]; day 5): 1.9 ± 0.5 score 0-4; TSP I (score 0-4) ([3]; day 5): 2.0 ± 0.6 score 0-4; TGF-β1 (score 0-4) ([3]; day 8): 1.5 ± 0.8 score 0-4; TGF-β2 (score 0-4) ([3]; day 8): 1.3 ± 0.8 score 0-4; TGF-βRI (score 0-4) ([3]; day 8): 1.8 ± 0.9 score 0-4; TGF-βRII (score 0-4) ([3]; day 8): 1.3 ± 0.8 score 0-4; TSP I (score 0-4) ([3]; day 8): 0.6 ± 0.3 score 0-4; Glomerular Microaneurysm (in percent) ([4]; day 3): 34.0 ± 30.1%; Glomerular Microaneurysm (in percent) ([4]; day 5): 20.6 ± 22.7%; Glomerular Microaneurysm (in percent) ([4]; day 8): 6.0 ± 5.9%; Glomerular GEN-proliferation (double staining for RECA-1 and PCNA) [4]: 2.2 cells/glomerular cross-section; mesangiolysis scores [4]: 2.7±0.5; Proteinuria (mg/24 hours) [5]: 83 ± 40 mg/24 hours; twenty-four hour proteinuria [5]: 83±40 mg/twenty-four hours; Blood urea nitrogen [5]: 33.2 ± 12.7 mg/dL
